{"source": "patent US20210228621A1", "about": "“COMPOSITION FOR SKIN WOUNDS” (SUMITOMO SEIKA CHEMICALS CO., LTD., priority 2018, published 2021)", "experiment": "CO concentration of the CO-containing compositions analyzed by gas chromatography", "format": "physicochemical", "conditions": "about 2 atm; for CO concentration of liquid phase obtained by actual measurement: solvent H2O; for CO concentration in liquid phase obtained by actual measurement: solvent carbomer aqueous solution; for CO concentration of IPM: solvent isopropyl myristate", "protocol": "(§1) Pure water (2.5 mL) was placed in a vial. (3 mL, produced by Maruemu Corporation), and the vial was sealed with a rubber stopper and an aluminum seal. Next, a gas (N2 balance) having an arbitrarily adjusted CO concentration was collected in a Tedlar bag (1 L, produced by AS ONE Corporation). The air in the gas phase in the vial was replaced with the gas in the Tedlar bag until pressure reached about 2 atm by using a gas-tight syringe (M-GAN500, produced by Ito Corporation). Subsequently, the resulting product was allowed to stand until CO in the gas phase was dissolved in the liquid phase to reach equilibrium.\nThe CO concentration of the compositions was analyzed by gas chromatography (GC-2014 FID produced by Shimadzu Corporation).\nas §1, with “Isopropyl myristate (IPM: Wako first grade, produced by Fujifilm Wako Pure” for “Pure”, “Chemical Corporation)” for “water”, “vial” for “vial.”, “(MS-GAN500,” for “(M-GAN500,”\nThe CO concentration of the obtained compositions was analyzed by gas chromatography (GC-2014 FID produced by Shimadzu Corporation). When the CO (%) in the gas phase in the Tedlar bag was 18%, the CO concentration of IPM was 1500 μM. When the CO (%) in the gas phase in the Tedlar bag was 100%, the CO concentration of IPM was 9000 μM.\nas §1, with “The carbomer aqueous solution” for “Pure water”, “vial” for “vial.”, “(MS-GAN500,” for “(M-GAN500,”\nas §1, with “The hydroxyethyl cellulose aqueous solution” for “Pure water”, “vial” for “vial.”, “(MS-GAN500,” for “(M-GAN500,”\nThe CO concentration of the obtained CO-containing compositions was analyzed by gas chromatography (GC-2014 FID produced by Shimadzu Corporation). When the CO (%) in the gas phase in the Tedlar bag was 100%, the CO concentration in the hydroxyethyl cellulose aqueous solution was 1500 μM.", "key": {"[1]": {"conditions": "CO in gas phase in Tedlar bag 8% (theoretical value)"}, "[2]": {"conditions": "CO in gas phase in Tedlar bag 100% (theoretical value)"}}, "data": [{"smiles": "[C-]#[O+]", "note": "[CO, carbon monoxide]", "values": [{"measurement": "CO concentration of liquid phase obtained by actual measurement", "setting": "[1]", "value": 100, "unit": "µM"}, {"measurement": "CO concentration of liquid phase obtained by actual measurement", "setting": "CO in gas phase in Tedlar bag 34% (theoretical value)", "value": 500, "unit": "µM"}, {"measurement": "CO concentration of liquid phase obtained by actual measurement", "setting": "CO in gas phase in Tedlar bag 67% (theoretical value)", "value": 1000, "unit": "µM"}, {"measurement": "CO concentration of liquid phase obtained by actual measurement", "setting": "[2]", "value": 1500, "unit": "µM"}, {"measurement": "CO concentration in liquid phase obtained by actual measurement", "setting": "[1]", "value": 100, "unit": "µM"}, {"measurement": "CO concentration in liquid phase obtained by actual measurement", "setting": "CO in gas phase in Tedlar bag 35% (theoretical value)", "value": 500, "unit": "µM"}, {"measurement": "CO concentration in liquid phase obtained by actual measurement", "setting": "[2]", "value": 1500, "unit": "µM"}, {"measurement": "CO concentration in the hydroxyethyl cellulose aqueous solution", "setting": "solvent hydroxyethyl cellulose aqueous solution, CO in gas phase in Tedlar bag 100%", "value": 1500, "unit": "µM"}, {"measurement": "CO concentration of IPM", "setting": "CO in gas phase in Tedlar bag 18%", "value": 1500, "unit": "µM"}, {"measurement": "CO concentration of IPM", "setting": "CO in gas phase in Tedlar bag 100%", "value": 9000, "unit": "µM"}]}]}
